Data from patent US6472526B1, “Imidazole derivatives having an inhibitory activity for farnesyl transferase and process for preparation thereof” (LG Chemical Ltd., priority 1997, dated 2002).

How the values were obtained:
Ras farnesyl transferase [1] = biological target: T1, Ras farnesyl transferase (Homo sapiens, UniProt P49354+P49356); experiment: In vitro inhibitory activity for Ras farnesyl transferase, H-Ras substrate; assay type: biochemical
T1 construct: made in house

Ras farnesyl transferase [2] = biological target: T2, Ras farnesyl transferase (Rattus norvegicus, UniProt Q02293+Q04631); experiment: In vivo (cellular) inhibitory activity for Ras farnesyl transferase, Rat2 cell line transformed with fused protein of H-Ras substituted with polybasic lysine domain at C-terminus of K-Ras; assay type: cell-based
T2 construct: endogenous in cells; host or cells: Rat2 fibroblasts transformed with H-Ras or with an H-Ras/K-Ras C-terminus fusion
Procedure, shortened: (§1)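 Transformed Rat2 fibroblasts (H-Ras or H-Ras/K-Ras polybasic-tail fusion) treated with compound in 1% DMSO; after 4 h labelled with [35S]methionine 150 μCi/ml for 20 h. Lysates immunoprecipitated with anti-Ras Y13-259, resolved by 13.5% SDS-PAGE and autoradiography; CIC50 = concentration inhibiting 50% of Ras farnesylation from band intensities.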

Ras farnesyl transferase [3] = biological target: T2, Ras farnesyl transferase; experiment: In vivo (cellular) inhibitory activity for Ras farnesyl transferase, Rat2 cell line which expresses C-Harvey-Ras protein; assay type: cell-based
Procedure, shortened: as §1

Ras farnesyl transferase [4] = biological target: T1, Ras farnesyl transferase; experiment: In vitro inhibitory activity for Ras farnesyl transferase, K-Ras substrate; assay type: biochemical
[5] = recombinant farnesyl transferase 4.5 nM, Ras substrate protein 1.5 μM, tritium-farnesylpyrophosphate 0.15 μM, 30 minutes at 37° C., read-out: H-Ras IC50
[6] = Rat2 cell line transformed with H-Ras fused with polybasic lysine domain of K-Ras C-terminus, concentration inhibiting 50% of farnesyl bonding, read-out: K-Ras CIC50
[7] = Rat2 cell line expressing C-Harvey-Ras, concentration inhibiting 50% of farnesyl bonding of Ras protein, read-out: H-Ras CIC50
[8] = in vitro farnesyl transferase assay, K-Ras, read-out: K-Ras IC50

Structure (SMILES) | IC50 (Ras farnesyl transferase [1]; [5]) [nM] | IC50 (Ras farnesyl transferase [2]; [6]) [nM] | IC50 (Ras farnesyl transferase [3]; [7]) [nM] | IC50 (Ras farnesyl transferase [4]; [8]) [nM] | IC50 (Ras farnesyl transferase [1]) [nM] | IC50 (Ras farnesyl transferase [2]) [nM] | IC50 (Ras farnesyl transferase [3]) [nM] | IC50 (Ras farnesyl transferase [4]) [nM]
O=C(c1cn(Cc2c[nH]cn2)cc1-c1cccc2ccccc12)N1CCS(=O)(=O)CC1 [Compound 87] | 60 | 10000 to 100000 | 1000 to 50000 | 100 to 10000 |  |  |  | 
O=C(c1cn(Cc2c[nH]cn2)cc1-c1cccc2ccccc12)N1CCNCC1 [Compound 88] | 600 | 10000 to 100000 | 1000 to 50000 | 100 to 10000 |  |  |  | 
O=C(c1cn(Cc2c[nH]cn2)cc1-c1cccc2ccccc12)N1CCSC1 [Compound 90] | 42.5 | 10000 to 100000 | 1000 to 50000 | 100 to 10000 |  |  |  | 
O=C(c1cn(Cc2c[nH]cn2)cc1-c1cccc2ccccc12)N1CCC(O)CC1 [Compound 91] | 2150 | 10000 to 100000 | 1000 to 50000 | 100 to 10000 |  |  |  | 
O=C1CCN(C(=O)c2cn(Cc3c[nH]cn3)cc2-c2cccc3ccccc23)CC1 [Compound 92] |  |  |  |  | 70 | 10000 to 100000 | 1000 to 50000 | 100 to 10000
O=C(NCCO)c1cn(Cc2c[nH]cn2)cc1-c1cccc2ccccc12 [Compound 93] | 320 | 10000 to 100000 | 1000 to 50000 | 100 to 10000 |  |  |  | 
CN(CCO)C(=O)c1cn(Cc2c[nH]cn2)cc1-c1cccc2ccccc12 [Compound 94] | 200 | 10000 to 100000 | 1000 to 50000 | 100 to 10000 |  |  |  | 
COCCN(C)C(=O)c1cn(Cc2c[nH]cn2)cc1-c1cccc2ccccc12 [Compound 95] | 0.7 | 10000 to 50000 | 10 to 100 | 100 to 1000 |  |  |  | 
O=C(c1cn(Cc2c[nH]cn2)cc1-c1ccnc2ccccc12)N1CCOCC1 [Compound 96] | 230 | 10000 to 100000 | 1000 to 50000 | 100 to 10000 |  |  |  | 
O=C(c1cn(Cc2c[nH]cn2)cc1-c1ccc2c3c(cccc13)CC2)N1CCOCC1 [Compound 97] | 12000 | 10000 to 100000 | 10000 to 100000 | 10000 to 100000 |  |  |  | 
N#Cc1ccc(CNC(=O)c2cn(Cc3c[nH]cn3)cc2-c2cccc3ccccc23)cc1 [Compound 98] | 900 | 10000 to 100000 | 1000 to 50000 | 100 to 10000 |  |  |  | 
CSCC[C@H](NC(=O)c1cn(Cc2cncn2Cc2ccc(C#N)cc2)cc1-c1cccc2ccccc12)C(=O)O [Compound 101, (S)-1-[1-(4-Cyanobenzyl)-1H-imidazol-5-yl]methyl-3-[N-(1-hydroxycarbonyl-3-methylthio)propyl]carbamoyl-4(naphthalen-1-yl)-1H-pyrrole] | 10 | > 50000 | > 5000 | 800 |  |  |  | 
COC(=O)[C@H](CC(C)C)NC(=O)c1cn(Cc2cncn2Cc2ccc(C#N)cc2)cc1-c1cccc2ccccc12 [Compound 102] | 450 | > 50000 | 1000 to 50000 | 22000 |  |  |  | 
CC(C)C[C@H](NC(=O)c1cn(Cc2cncn2Cc2ccc(C#N)cc2)cc1-c1cccc2ccccc12)C(=O)O [Compound 103] | 64 | 10000 to 100000 | 100 to 10000 | 1700 |  |  |  | 
N#Cc1ccc(Cn2cncc2Cn2cc(C(=O)N3CCOCC3)c(-c3cccc4ccccc34)c2)cc1 [Compound 104] | 0.5 | < 10000 | < 50 | 6 |  |  |  | 
CN1CCN(C(=O)c2cn(Cc3cncn3Cc3ccc(C#N)cc3)cc2-c2cccc3ccccc23)CC1 [Compound 105] | 0.4 | > 50000 | 50 | 90 |  |  |  | 

Structure (SMILES) | IC50 (Ras farnesyl transferase [1]; [5]) [nM] | IC50 (Ras farnesyl transferase [2]; [6]) [nM] | IC50 (Ras farnesyl transferase [3]; [7]) [nM] | IC50 (Ras farnesyl transferase [4]; [8]) [nM] | IC50 (Ras farnesyl transferase [1]) [nM] | IC50 (Ras farnesyl transferase [2]) [nM] | IC50 (Ras farnesyl transferase [3]) [nM] | IC50 (Ras farnesyl transferase [4]) [nM]
O=C(c1cn(CCn2ccnc2)cc1-c1cccc2ccccc12)N1CCOCC1 [Compound 106] | 900 | 10000 to 100000 | 1000 to 50000 | 10000 to 100000 |  |  |  | 
COC(=O)[C@H](CCSC)NC(=O)c1cn(CCCc2c[nH]cn2)cc1-c1cccc2ccccc12 [Compound 107, (S)-1-[3-(1H-Imidazol-4-yl)propyl]-3-[1N-(1-methoxycarbonyl-3-methylthio)propyl]carbamoyl-4-(naphthalen-1-yl)-1H-pyrrole] | 10000 | 10000 to 100000 | 1000 to 50000 | 100 to 10000 |  |  |  | 
CSCC[C@H](NC(=O)c1cn(CCCc2c[nH]cn2)cc1-c1cccc2ccccc12)C(=O)O [Compound 108] | 260 | 10000 to 100000 | 1000 to 50000 | 100 to 10000 |  |  |  | 
O=C(c1cn(CCCc2c[nH]cn2)cc1-c1cccc2ccccc12)N1CCOCC1 [Compound 109] | 8600 | 10000 to 100000 | 1000 to 50000 | 1000 to 50000 |  |  |  | 
COCCN(C)C(=O)c1cn(Cc2cncn2Cc2ccc(Br)cc2)cc1-c1cccc2ccccc12 [Compound 111, 1-[1-(4-Bromobenzyl)-1H-imidazol-5-yl]methyl-3-[N-(2-methoxyethyl)-N-methyl]carbamoyl-4-(naphthalen-1-yl)-1H-pyrrole] | 2 | 4000 | 30 | 2 |  |  |  | 
N#Cc1ccc(Cn2cncc2Cn2cc(C(=S)N3CCOCC3)c(-c3cccc4ccccc34)c2)cc1 [Compound 113, 1-[1-(4-Cyanobenzyl)-1H-imidazol-5-yl]methyl-3-(morpholin-4-yl)thiocarbonyl-4-(naphthalen-1-yl)-1H-pyrrole] | 4 | 10000 to 100000 | < 100 | < 100 |  |  |  | 
COCCN(C)C(=O)c1cn(Cc2cncn2C)cc1-c1cccc2ccccc12 [Compound 114, 3-[N-(2-Methoxyethyl)-N-methyl]carbamoyl-1-(1-methyl-1H-imidazol-5-yl)methyl-4-(naphthalen-1-yl)-1H-pyrrole] | 1 | < 100000 | 15 | 100 |  |  |  | 
COCCN(C)C(=O)c1cn(Cc2cncn2CC(C)C)cc1-c1cccc2ccccc12 [Compound 115, 1-(1-Isobutyl-1H-imidazol-5-yl)methyl-3-[N-(2-methoxyethyl)-N-methyl]carbamoyl-4-(naphthalen-1-yl)-1H-pyrrole] | 2 | < 50000 | 25 | 35 |  |  |  | 
COCCN(C)C(=O)c1cn(Cc2cncn2CC2CCCCC2)cc1-c1cccc2ccccc12 [Compound 116, 1-(1-Cyclohexylmethyl-1H-imidazol-5-yl)methyl-3-[N-(2-methoxyethyl)-N-methyl]carbamoyl-4-(naphthalen-1-yl)-1H-pyrrole] | 4 | < 50000 | 30 | 62 |  |  |  | 
CN1CCN(C(=O)c2cn(Cc3cncn3Cc3ccc(Br)cc3)cc2-c2cccc3ccccc23)CC1 [Compound 125, 1-[1-(4-Bromobenzyl)-1H-imidazol-5-yl]methyl-3-[4-methylpiperazin-1-yl]carbonyl-4-(naphthalen-1-yl)-1H-pyrrole] | 2 | 4000 | 6 | 4 |  |  |  | 
CN1CCN(C(=O)c2cn(Cc3cncn3Cc3ccc(Cl)cc3)cc2-c2cccc3ccccc23)CC1 [Compound 126, 1-[1-(4-Chlorobenzyl)-1H-imidazol-5-yl]methyl-3-[4-methylpiperazin-1-yl]carbonyl-4-(naphthalen-1-yl)-1H-pyrrole] | 1 | 5000 | 12 | 4 |  |  |  | 
COCCN(C)C(=O)c1cn(Cc2cncn2Cc2ccc(F)cc2)cc1-c1cccc2ccccc12 [Compound 127, 1-[1-(4-fluorobenzyl)-1H-imidazol-5-yl]methyl-3[N-(2-methoxyethyl)-N-methyl]carbamoyl-4-(naphthalen-1-yl)-1H-pyrrole] | 2 | 5000 | 15 | 5 |  |  |  | 
CN1CCN(C(=O)c2cn(Cc3cncn3Cc3ccc(F)cc3)cc2-c2cccc3ccccc23)CC1 [Compound 128, 1-[1-(4-fluorobenzyl)-1H-imidazol-5-yl]methyl-3-[4-methylpiperazin-1-yl]carbonyl-4-(naphthalen-1-yl)-1H-pyrrole] | 2 | 5000 | 10 | 10 |  |  |  | 
COc1ccc(Cn2cncc2Cn2cc(C(=O)N3CCN(C)CC3)c(-c3cccc4ccccc34)c2)cc1 [Compound 130, 1-[1-(4-Methoxybenzyl)-1H-imidazol-5-yl] methyl-3-(4-methylpiperazin-1-yl)carbonyl-4-(naphthalen-1-yl)-1H-pyrrole] | 2 | 10000 to 50000 | 25 | 3 |  |  |  | 
CN1CCN(C(=O)c2cn(Cc3cncn3Cc3cccc(Cl)c3)cc2-c2cccc3ccccc23)CC1 [Compound 131, 1-[1-(3-Chlorobenzyl)-1H-imidazol-5-yl]methyl-3-(4-methylpiperazin-1-yl)carbonyl-4-(naphthalen-1-yl)-1H-pyrrole] | 1 | 10000 to 50000 | 12.5 | 2.3 |  |  |  | 
COCCN(C)C(=O)c1cn(Cc2cncn2Cc2cccc(Cl)c2)cc1-c1cccc2ccccc12 [Compound 132, 1-[1-(3-Chlorobenzyl)-1H-imidazol-5-yl]methyl-3-[N-(2-methoxyethyl)-N-methyl]carbamoyl-4-(naphthalen-1-yl)-1H-pyrrole] | 3.5 | 10000 to 50000 | 25 | 11 |  |  |  | 
